# Test results reported in US20240217978A1 (CHONG KUN DANG PHARMACEUTICAL CORP., priority 2021, published 2024).
# Target: human adenosine A2a receptor (Homo sapiens (Human), UniProt P29274)
# Assay: A2a receptor binding affinity, [3H]-NECA radioligand binding test
# Settings: [3H]-NECA 37 nM; membrane from HEK-293 cells transfected with human adenosine A2a receptor
# Summary of the method: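 Membranes from HEK-293 cells expressing human A2a receptor were incubated with [3H]-NECA (final 37 nM) and compound for 1 h at room temperature in 50 mM Tris, 10 mM MgCl2, 1 mM EDTA, pH 7.4. Bound ligand was filtered on PEI-coated plates and counted by scintillation to derive IC50 (μM).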
# Chain of human adenosine A2a receptor (P29274 whole entry): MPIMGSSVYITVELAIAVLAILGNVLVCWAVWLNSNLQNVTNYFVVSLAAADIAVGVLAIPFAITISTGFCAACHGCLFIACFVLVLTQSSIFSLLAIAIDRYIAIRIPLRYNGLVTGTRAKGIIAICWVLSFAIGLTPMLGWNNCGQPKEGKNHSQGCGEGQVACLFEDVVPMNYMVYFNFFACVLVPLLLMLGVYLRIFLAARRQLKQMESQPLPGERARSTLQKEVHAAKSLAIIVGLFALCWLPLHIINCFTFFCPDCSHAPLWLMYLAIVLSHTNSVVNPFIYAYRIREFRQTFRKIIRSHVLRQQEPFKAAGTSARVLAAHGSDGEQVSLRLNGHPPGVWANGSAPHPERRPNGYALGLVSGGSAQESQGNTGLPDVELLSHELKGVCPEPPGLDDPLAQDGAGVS
smiles,measurement,value
"Nc1nc(N2CCC[C@H]2C(=O)N2CCC(C(=O)N3CCCCC3)CC2)nc2nc(-c3ccco3)nn12 [Example 142, (1-((7-amino-2-(furan-2-yl)-[1,2,4]triazolo[1,5-a][1,3,5]triazin-5-yl)-L-prolyl)piperidin-4-yl)(piperidin-1-yl)methanone]",IC50,13 nM
"CCOC[C@H](Nc1nc(N)n2nc(-c3ccco3)nc2n1)C(=O)N1CCN(CC(F)(F)F)CC1 [Example 308, (S)-2-((7-amino-2-(furan-2-yl)-[1,2,4]triazolo[1,5-a][1,3,5]triazin-5-yl)amino)-3-ethoxy-1-(4-(2,2,2-trifluoroethyl)piperazin-1-yl)propan-1-one]",IC50,13 nM
"Nc1nc(N2CCC[C@H]2C(=O)N2CCN(CC(F)F)CC2)nc2nc(-c3ccco3)nn12 [Example 223, (S)-(1-(7-amino-2-(furan-2-yl)-[1,2,4]triazolo[1,5-a][1,3,5]triazin-5-yl)pyrrolidin-2-yl)(4-(2,2-difluoroethyl)piperazin-1-yl)methanone]",IC50,7 nM
"COCCN1CCN(C(=O)[C@@H](Nc2nc(N)n3nc(-c4ccco4)nc3n2)C(C)C)CC1 [Example 60, (S)-2-((7-amino-2-(furan-2-yl)-[1,2,4]triazolo[1,5-a][1,3,5]triazin-5-yl)amino)-1-(4-(2-methoxyethyl)piperazin-1-yl)-3-methylbutan-1-one]",IC50,18 nM
"CC(C)(F)CN1CCC(C2CCN(C(=O)[C@@H]3CCCN3c3nc(N)n4nc(-c5ccco5)nc4n3)CC2)CC1 [Example 245, (S)-(1-(7-amino-2-(furan-2-yl)-[1,2,4]triazolo[1,5-a][1,3,5]triazin-5-yl)pyrrolidin-2-yl)(1′-(2-fluoro-2-methylpropyl)-[4,4′-bipiperidin]-1-yl)methanone]",IC50,15 nM
"Nc1nc(N[C@H](C(=O)N2CCC(N3CC(F)(F)C3)CC2)C2CCCCC2)nc2nc(-c3ccco3)nn12 [Example 186, (S)-2-((7-amino-2-(furan-2-yl)-[1,2,4]triazolo[1,5-a][1,3,5]triazin-5-yl)amino)-2-cyclohexyl-1-(4-(3,3-difluoroazetidin-1-yl)piperidin-1-yl)ethan-1-one]",IC50,9 nM
"Cc1ccc(-c2nc3nc(N4CCC[C@H]4C(=O)N4CCC(c5ccc(F)cc5F)CC4)nc(N)n3n2)o1 [Example 201, (S)-(1-(7-amino-2-(5-methylfuran-2-yl)-[1,2,4]triazolo[1,5-a][1,3,5]triazin-5-yl)pyrrolidin-2-yl)(4-(2,4-difluorophenyl)piperidin-1-yl) methanone]",IC50,5 nM
"Nc1nc(N2CCC[C@H]2C(=O)N2CCN(CC(F)(F)C(F)(F)F)CC2)cc2nc(-c3ccco3)nn12 [Example 296, (S)-(1-(5-amino-2-(furan-2-yl)-[1,2,4]triazolo[1,5-c]pyrimidin-7-yl)pyrrolidin-2-yl)(4-(2,2,3,3,3-pentafluoropropyl)piperazin-1-yl)methanone]",IC50,0.8 nM
"CC(F)(F)CN1CCC2(CC1)CN(C(=O)[C@@H]1CCCN1c1nc(N)n3nc(-c4ccco4)nc3n1)C2 [Example 365, (S)-(1-(7-amino-2-(furan-2-yl)-[1,2,4]triazolo[1,5-a][1,3,5]triazin-5-yl)pyrrolidin-2-yl)(7-(2,2-difluoropropyl)-2,7-diazaspiro[3-5]nonan-2-yl)methanone]",IC50,13 nM
"CC(C)(F)CN1CCN(C(=O)[C@@H](Nc2nc(N)n3nc(-c4ccco4)nc3n2)c2ccccc2)CC1 [Example 195, (S)-2-((7-amino-2-(furan-2-yl)-[1,2,4]triazolo[1,5-a][1,3,5]triazin-5-yl)amino)-1-(4-(2-fluoro-2-methylpropyl)piperazin-1-yl)-2-phenylethan-1-one]",IC50,3 nM
"Nc1nc(N2CCC[C@H]2C(=O)N2CCN(c3ccc(C(F)(F)F)cc3F)CC2)nc2nc(-c3ccco3)nn12 [Example 149, (S)-(1-(7-amino-2-(furan-2-yl)-[1,2,4]triazolo[1,5-a][1,3,5]triazin-5-yl)pyrrolidin-2-yl)(4-(2-fluoro-4-(trifluoromethyl)phenyl)piperazin-1-yl)methanone]",IC50,0.5 nM
"CC(C)(O)CN1CCN(C(=O)[C@@H]2CCCN2c2nc(N)n3nc(-c4ccco4)nc3n2)CC1 [Example 302, (S)-(1-(7-amino-2-(furan-2-yl)-[1,2,4]triazolo[1,5-a][1,3,5]triazin-5-yl)pyrrolidin-2-yl)(4-(2-hydroxy-2-methylpropyl)piperazin-1-yl)methanone]",IC50,6 nM
"Cc1ccc(-c2nc3nc(N4CC[C@H]4C(=O)N4CCN(CC(C)(F)F)CC4)nc(N)n3n2)o1 [Example 314, (S)-(1-(7-amino-2-(5-methylfuran-2-yl)-[1,2,4]triazolo[1,5-a][1,3,5]triazin-5-yl)azetidin-2-yl)(4-(2,2-difluoropropyl)piperazin-1-yl)methanone]",IC50,19 nM
"Nc1nc(N2CC[C@H]2C(=O)N2CCC(C3CCN(CC(F)F)CC3)CC2)cc2nc(-c3ccco3)nn12 [Example 378, (S)-(1-(5-amino-2-(furan-2-yl)-[1,2,4]triazolo[1,5-c]pyrimidin-7-yl)azetidin-2-yl)(1′-(2,2-difluoroethyl)-[4,4′-bipiperidin]-1-yl)methanone]",IC50,0.7 nM
"Nc1nc(N2CCC[C@H]2C(=O)N2CCC3(CC2)CN(CC(F)(F)F)C3)nc2nc(-c3ccco3)nn12 [Example 362, (S)-(1-(7-amino-2-(furan-2-yl)-[1,2,4]triazolo[1,5-a][1,3,5]triazin-5-yl)pyrrolidin-2-yl)(2-(2,2,2-trifluoroethyl)-2,7-diazaspiro[3.5]nonan-7-yl)methanone]",IC50,30 nM
"Nc1nc(N[C@H](C(=O)N2CCN(CC(F)(F)C(F)F)CC2)C2CC2)nc2nc(-c3ccco3)nn12 [Example 359, (S)-2-((7-amino-2-(furan-2-yl)-[1,2,4]triazolo [1,5-a][1,3,5]triazin-5-yl)amino)-2-cyclopropyl-1-(4-(2,2,3,3-tetrafluoropropyl)piperazin-1-yl)ethan-1-one]",IC50,5 nM
"Cc1ccc(-c2nc3nc(N4CCC[C@H]4C(=O)N4CCN(CC(F)(F)C(F)F)CC4)nc(N)n3n2)o1 [Example 298, (S)-(1-(7-amino-2-(5-methylfuran-2-yl)-[1,2,4]triazolo[1,5-a][1,3,5]triazin-5-yl)pyrrolidin-2-yl)(4-(2,2,3,3-tetrafluoropropyl)piperazin-1-yl) methanone]",IC50,3 nM
"CCCCN1CCN(C(=O)[C@H](CC)Nc2nc(N)n3nc(-c4ccco4)nc3n2)CC1 [Example 172, (S)-2-((7-amino-2-(furan-2-yl)-[1,2,4]triazolo[1,5-a][1,3,5]triazin-5-yl)amino)-1-(4-butylpiperazin-1-yl)butan-1-one]",IC50,13 nM
"Nc1nc(N2CCC[C@H]2C(=O)N2CCN(CC(F)F)CC2)nc2sc(-c3ccco3)nc12 [Example 258, (S)-(1-(7-amino-2-(furan-2-yl)thiazolo[5,4-d]pyrimidin-5-yl)pyrrolidin-2-yl)(4-(2,2-difluoroethyl)piperazin-1-yl)methanone]",IC50,8 nM
"CC(C)[C@H](Nc1nc(N)n2nc(-c3ccco3)nc2n1)C(=O)N1CCN(c2ccc(F)cc2F)CC1 [Example 10, (S)-2-((7-amino-2-(furan-2-yl)-[1,2,4]triazolo[1,5-a][1,3,5]triazin-5-yl)amino)-1-(4-(2,4-difluorophenyl)piperazin-1-yl)-3-methylbutan-1-one]",IC50,0.357 nM
"C[C@H](Nc1nc(N)n2nc(-c3ccco3)nc2n1)C(=O)N1CCN(Cc2ccccc2)CC1 [Example 21, (S)-2-((7-amino-2-(furan-2-yl)-[1,2,4]triazolo[1,5-a][1,3,5]triazin-5-yl)amino)-1-(4-benzylpiperazin-1-yl)propan-1-one]",IC50,30 nM
"C[C@H](Nc1nc(N)n2nc(-c3ccco3)nc2n1)C(=O)N1CCN(CC(F)F)CC1 [Example 316, (S)-2-((7-amino-2-(furan-2-yl)-[1,2,4]triazolo[1,5-a][1,3,5]triazin-5-yl)amino)-1-(4-(2,2-difluoroethyl)piperazin-1-yl)propan-1-one]",IC50,26 nM
"Nc1nc(N2CC[C@H]2C(=O)N2CCN(c3ccc(F)cc3F)CC2)nc2nc(-c3ccco3)nn12 [Example 112, (S)-(1-(7-amino-2-(furan-2-yl)-[1,2,4]triazolo[1,5-a][1,3,5]triazin-5-yl)azetidin-2-yl)(4-(2,4-difluorophenyl)piperazin-1-yl)methanone]",IC50,9 nM
"CC(F)(F)CN1CCC(C2CCN(C(=O)[C@@H]3CCN3c3cc4nc(-c5ccco5)nn4c(N)n3)CC2)CC1 [Example 379, (S)-(1-(5-amino-2-(furan-2-yl)-[1,2,4]triazolo[1,5-c]pyrimidin-7-yl)azetidin-2-yl)(1′-(2,2-difluoropropyl)-[4,4′-bipiperidin]-1-yl)methanone]",IC50,2 nM
"COCCN1CCN(C(=O)[C@@H]2CCCN2c2nc(N)n3nc(-c4ccc(C)o4)nc3n2)CC1 [Example 91, (S)-(1-(7-amino-2-(5-methylfuran-2-yl)-[1,2,4]triazolo[1,5-a][1,3,5]triazin-5-yl)pyrrolidin-2-yl)(4-(2-methoxyethyl)piperazin-1-yl)methanone]",IC50,7 nM
"CCCCN1CCN(C(=O)[C@@H](Nc2nc(N)n3nc(-c4ccco4)nc3n2)C2CC2)CC1 [Example 176, (S)-2-((7-amino-2-(furan-2-yl)-[1,2,4]triazolo[1,5-a][1,3,5]triazin-5-yl)amino)-1-(4-butylpiperazin-1-yl)-2-cyclopropylethan-1-one]",IC50,16 nM
"Cc1ccc(-c2nc3nc(N4CCC[C@H]4C(=O)N4CCN(CC(F)(F)F)C[C@H]4C)nc(N)n3n2)o1 [Example 196, ((S)-1-(7-amino-2-(5-methylfuran-2-yl)-[1,2,4]triazolo[1,5-a][1,3,5]triazin-5-yl)pyrrolidin-2-yl)((R)-2-methyl-4-(2,2,2-trifluoroethyl)piperazin-1-yl)methanone]",IC50,8 nM
"Cc1cccc(NC(=O)N2CCN(C(=O)[C@@H]3CCCN3c3nc(N)n4nc(-c5ccco5)nc4n3)CC2)c1 [Example 61, 4-((7-amino-2-(furan-2-yl)-[1,2,4]triazolo[1,5-a][1,3,5]triazin-5-yl)-L-prolyl)-N-(m-tolyl)piperazin-1-carboxamide]",IC50,3 nM
